Assay in all cases: Disruption of BRAF RBD interaction with Ras (FRET / MOA assay, with Cyclophilin A)
Common to all, as to type: biochemical

The target of one test is KRAS WT (Homo sapiens, UniProt P01116+P62937). The settings on record: KRAS WT; read-out: KRAS WT FRET data IC50. An excerpt: (§1) This protocol may also be executed substituting other Ras proteins or nucleotides.
(§2) The purpose of this biochemical assay was to measure the ability of test compounds to facilitate ternary complex formation between a nucleotide-loaded K-Ras isoform and Cyclophilin A; the resulting ternary complex disrupts binding to a BRAF^RBD construct, inhibiting K-Ras signaling through a RAF effector. Data is reported as IC50 values.
(§3) Compound was present in plate wells as a 10-point 3-fold dilution series starting at a final concentration of 30 μM. After incubation at 25° C. for 3 hours, a mixture of Anti-His Eu-W1024 and anti-GST allophycocyanin was then added to assay sample wells at final concentrations of 10 nM and 50 nM, respectively, and the reaction incubated for an additional 1.5 hours. […] Compounds that facilitate disruption of a K-Ras:RAF complex were identified as those eliciting a decrease in the TR-FRET ratio relative to DMSO control wells.
(§4) The purpose of this biochemical assay was to measure the ability of test compounds to facilitate ternary complex formation between a nucleotide-loaded K-Ras isoform and Cyclophilin A; the resulting ternary complex disrupts binding to a BRAF^RBDD construct, inhibiting K-Ras signaling through a RAF effector. Data is reported as IC50 values.

The target in another test is KRAS G13D (Homo sapiens, UniProt P01116+P62937, G13D).
Sequence of KRAS G13D (P01116 1-169 isoform P01116-2 G13D limits assumed): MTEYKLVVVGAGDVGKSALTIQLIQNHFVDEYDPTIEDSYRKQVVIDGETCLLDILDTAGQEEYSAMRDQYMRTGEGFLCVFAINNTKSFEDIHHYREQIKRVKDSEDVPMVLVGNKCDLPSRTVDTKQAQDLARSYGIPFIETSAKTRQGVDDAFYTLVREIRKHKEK
Sequence of KRAS G13D (P62937 whole entry): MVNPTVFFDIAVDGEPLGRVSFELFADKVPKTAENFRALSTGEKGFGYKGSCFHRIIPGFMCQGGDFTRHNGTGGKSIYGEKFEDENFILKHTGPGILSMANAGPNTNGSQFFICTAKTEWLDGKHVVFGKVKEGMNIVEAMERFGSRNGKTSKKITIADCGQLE
Excerpt: as §1, §2, §3, §4

The target in a further test is KRAS G12C (Homo sapiens, UniProt P01116+P62937, G12C).
Sequence of KRAS G12C (P01116 1-169 isoform P01116-2 G12C): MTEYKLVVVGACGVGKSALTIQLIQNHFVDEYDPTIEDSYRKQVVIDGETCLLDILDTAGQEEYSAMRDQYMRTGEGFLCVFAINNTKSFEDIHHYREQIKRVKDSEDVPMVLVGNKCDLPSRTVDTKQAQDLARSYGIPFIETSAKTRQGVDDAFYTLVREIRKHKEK
Sequence of KRAS G12C (P62937 whole entry): as the sequence (P62937 whole entry) above
Excerpt: as §1, §2, §3, §4

The next test deals with NRAS G12C (Homo sapiens, UniProt P01111+P62937, G12C). The settings on record: NRAS G12C; read-out: NRAS G12C FRET data IC50.
Sequence of NRAS G12C (P01111 whole entry G12C): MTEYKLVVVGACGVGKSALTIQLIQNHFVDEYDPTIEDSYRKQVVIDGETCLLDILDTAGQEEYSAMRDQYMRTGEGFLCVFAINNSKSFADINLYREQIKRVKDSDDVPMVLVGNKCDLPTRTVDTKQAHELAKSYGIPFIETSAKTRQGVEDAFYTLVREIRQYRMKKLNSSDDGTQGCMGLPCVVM
Sequence of NRAS G12C (P62937 whole entry): as the sequence (P62937 whole entry) above
Excerpt: as §1, §2, §3, §4

The target of another test is KRAS G12S (Homo sapiens, UniProt P01116+P62937, G12S). The settings on record: read-out: KRAS G12S FRET data, IC50.
Sequence of KRAS G12S (P01116 1-169 isoform P01116-2 G12S limits assumed): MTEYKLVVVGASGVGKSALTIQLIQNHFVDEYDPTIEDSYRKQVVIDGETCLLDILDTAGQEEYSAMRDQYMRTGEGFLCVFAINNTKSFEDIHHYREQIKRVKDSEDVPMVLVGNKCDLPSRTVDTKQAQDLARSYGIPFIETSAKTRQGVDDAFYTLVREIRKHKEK
Sequence of KRAS G12S (P62937 whole entry): as the sequence (P62937 whole entry) above
Excerpt: as §1, §2, §3, §4

The next test deals with KRAS G13C (Homo sapiens, UniProt P01116+P62937, G13C).
Sequence of KRAS G13C (P01116 1-169 isoform P01116-2 G13C): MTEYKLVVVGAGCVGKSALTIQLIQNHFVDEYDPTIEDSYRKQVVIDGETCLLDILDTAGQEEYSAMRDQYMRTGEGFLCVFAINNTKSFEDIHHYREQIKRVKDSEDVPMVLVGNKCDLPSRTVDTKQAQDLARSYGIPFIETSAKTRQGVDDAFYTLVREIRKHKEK
Sequence of KRAS G13C (P62937 whole entry): as the sequence (P62937 whole entry) above
Excerpt: as §1, §2, §3, §4

In another test the target is KRAS G12V (Homo sapiens, UniProt P01116+P62937, G12V). The settings on record: KRAS G12V; read-out: KRAS G12V FRET data IC50.
Sequence of KRAS G12V (P01116 1-169 isoform P01116-2 G12V limits assumed): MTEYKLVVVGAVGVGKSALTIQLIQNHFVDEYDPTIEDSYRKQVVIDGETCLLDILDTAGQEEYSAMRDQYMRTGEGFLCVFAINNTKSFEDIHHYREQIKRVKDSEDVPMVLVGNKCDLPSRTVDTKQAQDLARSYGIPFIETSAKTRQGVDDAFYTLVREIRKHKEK
Sequence of KRAS G12V (P62937 whole entry): as the sequence (P62937 whole entry) above
Excerpt: as §1, §2, §3, §4

In the next test the target is KRAS G12D (Homo sapiens, UniProt P01116+P62937, G12D). The settings on record: read-out: KRAS G12D FRET data, IC50.
Sequence of KRAS G12D (P01116 1-169 isoform P01116-2 G12D limits assumed): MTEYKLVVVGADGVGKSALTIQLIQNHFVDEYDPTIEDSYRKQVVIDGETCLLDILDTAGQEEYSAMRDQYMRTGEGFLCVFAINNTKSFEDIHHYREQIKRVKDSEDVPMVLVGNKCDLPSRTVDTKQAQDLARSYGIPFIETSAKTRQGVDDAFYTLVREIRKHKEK
Sequence of KRAS G12D (P62937 whole entry): as the sequence (P62937 whole entry) above
Excerpt: as §1, §2, §3, §4

Setting [1] is: KRAS G13D, read-out: KRAS G13D FRET data IC50.
Setting [2] is: read-out: KRAS G12C FRET data, IC50.
[3] abbreviates: read-out: KRAS G13C FRET data, IC50.
Where [4] appears, read: KRAS G12C, read-out: KRAS G12C FRET data IC50.
[5] abbreviates: KRAS G13C, read-out: KRAS G13C FRET data IC50.

In general, IC50 refers to the concentration that inhibits the measured activity by half.

Where two headings read alike, the source gives them in different places.

Sequence of KRAS WT (P01116 1-169 isoform P01116-2 limits assumed): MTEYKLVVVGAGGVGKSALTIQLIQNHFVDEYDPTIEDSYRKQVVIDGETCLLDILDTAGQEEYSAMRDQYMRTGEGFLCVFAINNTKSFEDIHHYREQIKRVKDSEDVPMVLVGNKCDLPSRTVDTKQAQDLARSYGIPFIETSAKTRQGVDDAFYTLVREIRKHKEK
Sequence of KRAS WT (P62937 whole entry, canonical isoform): as the sequence (P62937 whole entry) above

For the compound `CCn1c(-c2cccnc2[C@H](C)OC)c2c3cc(ccc31)-c1cc(C#N)cc(c1)C[C@H](NC(=O)[C@H](C(C)C)N(C)C(C)=O)C(=O)N1CCC[C@H](N1)C(=O)OCC(C)(C)C2` (atropisomer, axis not shown) [Example A430], the IC50 at KRAS WT, on KRAS G13D (setting [1]), at KRAS G12C (setting [2]), at NRAS G12C, on KRAS G12S and at KRAS G13C (setting [3]) was greater than 10 µM in each case. Also, the IC50 at KRAS G12V and on KRAS G12D was greater than 10 µM each time.

In the case of `C=CC(=O)N1CC[C@]2(COCCN2C(=O)N(C)[C@H](C(=O)N[C@H]2Cc3nc(cs3)-c3ccc4c(c3)c(c(-c3cccnc3[C@H](C)OC)n4CC)CC(C)(C)COC(=O)[C@@H]3CCCN(N3)C2=O)C(C)C)C1` (atropisomer, axis not shown) [Example A677], the IC50 on NRAS G12C is 0.1 to 1 µM.

For `CO[C@@H](C)c1ncccc1-c1c2c3cc(ccc3n1C)-c1csc(n1)C[C@H](NC(=O)[C@H](C(C)C)N(C)C(C)=O)C(=O)N1CCC[C@H](N1)C(=O)OCC(C)(C)C2` (racemic) [Example A103], the IC50 on KRAS WT, on KRAS G13D (setting [1]), at KRAS G12C (setting [2]), on NRAS G12C, on KRAS G12S and at KRAS G13C (setting [3]) was greater than 10 µM each time. Moreover, the IC50 at KRAS G12V and on KRAS G12D was greater than 10 µM in each case.

For `CCn1c(-c2cccnc2[C@H](C)OC)c2c3cc(ccc31)-c1cc(O)cc(c1)C[C@H](NS(=O)(=O)CC1CCC3(CNC3)C1)C(=O)N1CCC[C@H](N1)C(=O)OCC(C)(C)C2` (mixture of isomers) [Example A188], the IC50 on KRAS WT, on KRAS G13D (setting [1]), on KRAS G12C (setting [2]), at NRAS G12C and at KRAS G12S was greater than 10 µM each time.

As for `CCn1c(-c2cccnc2[C@H](C)OC)c2c3cc(ccc31)-c1cc(O)cc(c1)C[C@H](NS(=O)(=O)N1CCN(C)CC1)C(=O)N1CCC[C@H](N1)C(=O)OCC(C)(C)C2` (racemic) [Example A193], the IC50 at KRAS WT, on KRAS G13D (setting [1]), on KRAS G12C (setting [2]), at NRAS G12C, on KRAS G12S and on KRAS G13C (setting [3]) was greater than 10 µM each time. Besides, the IC50 at KRAS G12V and on KRAS G12D was greater than 10 µM each time.

In the case of `C=CC(=O)N1CC(OC[C@H](C(=O)N[C@H]2Cc3cccc(c3)-c3ccc4c(c3)c(c(-c3cccnc3[C@H](C)OC)n4CC)CC(C)(C)COC(=O)[C@@H]3CCCN(N3)C2=O)C(C)C)C1` (racemic) [Example A484], the 50% inhibitory concentration (IC50) at KRAS WT is greater than 10 µM; on NRAS G12C it was 1 to 10 µM; at KRAS G12V it was greater than 10 µM.

In the case of `CCC(=O)N1CC[C@H](C(=O)N(C)[C@H](C(=O)N[C@H]2Cc3cc(O)cc(c3)-c3ccc4c(c3)c(c(-c3ccccc3CCOC)n4CC)CC(C)(C)COC(=O)[C@@H]3CCCN(N3)C2=O)C(C)C)C1` [Example A34], the IC50 on KRAS WT was 1 to 10 µM; at KRAS G13D (setting [1]), 1 to 10 µM; on KRAS G12C (setting [2]), 0.1 to 1 µM; at KRAS G12S, 1 to 10 µM; at KRAS G13C (setting [3]), 1 to 10 µM; at KRAS G12V, 1 to 10 µM.

In the case of `CCn1c(-c2cccnc2COC)c2c3cc(ccc31)-c1cc(O)cc(c1)C[C@H](NC(=O)[C@H](C(C)C)N(C)C(=O)[C@H]1CCN(C(=O)C#CCN3CCOCC3)C1)C(=O)N1CCC[C@H](N1)C(=O)OCC(C)(C)C2` [Example A095], the values for the IC50 at KRAS G12C (setting [4]), on NRAS G12C and on KRAS G12D were less than 0.01 µM, less than 0.01 µM and greater than 10 µM, respectively.

Take `CCn1c(-c2cccnc2COC)c2c3cc(ccc31)-c1cc(O)cc(c1)C[C@H](NC(=O)[C@H](C(C)C)N(C)C(=O)C1CN(C(=O)C#CCN(C)C)C1)C(=O)N1CCC[C@H](N1)C(=O)OCC(C)(C)C2` [Example A097]: the IC50 at KRAS WT was 0.1 to 1 µM; on KRAS G12C (setting [4]) it was less than 0.01 µM; at KRAS G12S it was 0.1 to 1 µM; on KRAS G13C (setting [5]), less than 0.01 µM; on KRAS G12V, 0.1 to 1 µM; at KRAS G12D it was 1 to 10 µM.

As to `C=CC(=O)N1CC[C@H](C(=O)N(C)[C@H](C(=O)N[C@H]2Cc3cc(O)cc(c3)-c3ccc4c(c3)c(c(-c3cnn(C)c3)n4CC)CC(C)(C)COC(=O)[C@@H]3CCCN(N3)C2=O)C(C)C)C1` [Example A099], the IC50 on KRAS WT is greater than 10 µM; at KRAS G12C (setting [4]), 0.1 to 1 µM; on KRAS G12S it was 1 to 10 µM; at KRAS G13C (setting [5]), 1 to 10 µM; at KRAS G12V it was 1 to 10 µM; on KRAS G12D it was greater than 10 µM.

For `CCn1c(-c2cccnc2[C@H](C)OC)c2c3cc(ccc31)-c1cc(O)cc(c1)C[C@H](NS(=O)(=O)c1cn(C)c(C)n1)C(=O)N1CCC[C@H](N1)C(=O)OCC(C)(C)C2` [Example A197], the 50% inhibitory concentration (IC50) at KRAS WT, at NRAS G12C and on KRAS G13C (setting [3]) was greater than 10 µM in each case.

On to `CCn1c(-c2cccnc2[C@H](C)OC)c2c3cc(ccc31)-c1cc(O)cc(c1)C[C@H](NS(=O)(=O)CC1CC1)C(=O)N1CCC[C@H](N1)C(=O)OCC(C)(C)C2` [Example A200], for which the IC50 at KRAS WT, at NRAS G12C and at KRAS G13C (setting [3]) was greater than 10 µM throughout.

In turn, `CCn1c(-c2cccnc2[C@H](C)OC)c2c3cc(ccc31)-c1csc(n1)C[C@H](NC(=O)[C@H](C(C)C)N(C)C(=O)C1COC1)C(=O)N1CCC[C@H](N1)C(=O)OCC(C)(C)C2` [Example A245] came in with an IC50 at KRAS G13D (KRAS G13D FRET data IC50, KRAS G13D) greater than 10 µM.

For the compound `CCn1c(-c2cccnc2[C@H](C)OC)c2c3cc(ccc31)-c1csc(n1)C[C@H](NC(=O)[C@H](C(C)C)N(C)C(=O)N1CC3(CCCN(C)C3=O)C1)C(=O)N1CCC[C@H](N1)C(=O)OCC(C)(C)C2` [Example A453], the IC50 at KRAS G13D (setting [1]) was greater than 10 µM.

Turning to `C=CC(=O)N1CC[C@H](C(=O)N(C)[C@H](C(=O)N[C@H]2Cc3cccc(c3)-c3ccc4c(c3)c(c(-c3cc(CN(C)C)cnc3[C@H](C)OC)n4CC)CC(C)(C)COC(=O)[C@@H]3CCCN(N3)C2=O)C(C)C)C1` [Example A523], the IC50 was greater than 10 µM at KRAS WT; greater than 10 µM on KRAS G13D (setting [1]); 1 to 10 µM on KRAS G12C (setting [4]); 1 to 10 µM on NRAS G12C; greater than 10 µM on KRAS G12S; greater than 10 µM at KRAS G13C (setting [5]). Besides, the IC50 at KRAS G12V is greater than 10 µM.

Consider `C=CC(=O)N1CC[C@H](C(=O)N(C)[C@H](C(=O)N[C@H]2Cc3cc(O)cc(c3)-c3ccc4c(c3)c(c(-c3ccc(CN5CC[C@@H](O)C5)cc3)n4CC)CC(C)(C)COC(=O)[C@@H]3CCCN(N3)C2=O)C(C)C)C1` [Examples A001], for which the concentration for half-maximal inhibition (IC50) at KRAS WT was greater than 10 µM; at KRAS G12C (setting [4]), 0.1 to 1 µM; on KRAS G12S it was 1 to 10 µM; on KRAS G13C (setting [5]), 1 to 10 µM; at KRAS G12V it was 1 to 10 µM; on KRAS G12D, greater than 10 µM.

Consider `C=CC(=O)N1CC[C@H](C(=O)N(C)[C@H](C(=O)N[C@H]2Cc3cc(O)cc(c3)-c3ccc4c(c3)c(c(-c3cnccc3COC)n4CC)CC(C)(C)COC(=O)[C@@H]3CCCN(N3)C2=O)C(C)C)C1` [Examples A028], for which the IC50 on KRAS WT is 0.1 to 1 µM; at KRAS G13D (setting [1]), 0.1 to 1 µM; at KRAS G12C (setting [4]), 0.01 to 0.1 µM; on KRAS G12S, 0.01 to 0.1 µM; on KRAS G13C (setting [5]), 0.1 to 1 µM; on KRAS G12V, 0.01 to 0.1 µM. In addition, the concentration for half-maximal inhibition (IC50) on KRAS G12D lay within 0.1 to 1 µM.

These data come from US20230233569A1 (Revolution Medicines, Inc., priority 2020, published 2023).
